Reference: patent publication US7576105B2, “Benzyl substituted (piperidin-4-yl)aminobenzamido derivatives” (priority 2002, dated 2009)

How the values were obtained:
[1] = molecular target: T1, μ-opioid receptor (Rattus norvegicus, UniProt P33535); assay: Rat brain μ-opioid receptor binding assay; details: rat forebrain particulate preparation, [3H]DAMGO, 25° C.
T1 construct: from tissue; host or cells: rat forebrain homogenate (Wistar rat)

[2] = molecular target: T2, δ-opioid receptor (Rattus norvegicus, UniProt P33533); assay: Rat brain δ-opioid receptor binding assay; details: rat forebrain particulate preparation, [3H]DPDPE, 25° C.
T2 construct: from tissue; host or cells: rat forebrain homogenate (Wistar rat)

[3] = test system: acetylcholine bromide-induced abdominal constriction; details: mouse, in vivo

T2 sequence (P33533 whole entry): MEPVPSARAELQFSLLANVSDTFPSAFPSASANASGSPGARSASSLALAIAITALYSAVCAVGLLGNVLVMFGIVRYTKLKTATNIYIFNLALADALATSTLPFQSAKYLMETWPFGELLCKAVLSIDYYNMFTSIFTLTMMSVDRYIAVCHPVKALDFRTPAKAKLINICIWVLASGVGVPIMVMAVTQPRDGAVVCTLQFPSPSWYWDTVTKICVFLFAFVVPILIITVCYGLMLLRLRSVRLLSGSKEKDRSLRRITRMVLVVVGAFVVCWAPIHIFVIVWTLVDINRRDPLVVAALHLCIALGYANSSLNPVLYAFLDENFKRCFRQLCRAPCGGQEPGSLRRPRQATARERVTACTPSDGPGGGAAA
T1 sequence (P33535 whole entry): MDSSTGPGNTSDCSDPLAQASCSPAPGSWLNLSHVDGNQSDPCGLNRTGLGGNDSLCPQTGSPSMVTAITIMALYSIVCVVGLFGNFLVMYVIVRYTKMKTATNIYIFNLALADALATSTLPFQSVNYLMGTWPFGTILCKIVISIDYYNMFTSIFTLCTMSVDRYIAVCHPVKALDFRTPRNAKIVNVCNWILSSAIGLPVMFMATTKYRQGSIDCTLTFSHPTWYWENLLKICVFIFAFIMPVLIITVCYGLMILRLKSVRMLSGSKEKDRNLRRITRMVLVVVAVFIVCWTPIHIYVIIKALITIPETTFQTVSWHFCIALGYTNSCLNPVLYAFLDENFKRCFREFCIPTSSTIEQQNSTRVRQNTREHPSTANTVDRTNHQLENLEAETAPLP

## CCCN1CCC(N(Cc2cccc(OC)c2)c2ccc(C(=O)N(CC)CC)cc2)CC1 [Compound 1, N,N-diethyl-4-[3-methoxybenzyl(1-propylpiperidin-4-yl)amino]benzamide]
[1]
  Ki: 9.28 µM
[2]
  Ki: 0.24 µM

## CCCN1CCC(N(Cc2cccc(O)c2)c2ccc(C(=O)N(CC)CC)cc2)CC1 [Compound 2, N,N-Diethyl-4-[3-hydroxybenzyl(1-propylpiperidin-4-yl)amino]benzamide]
[3]
  MAIT % Inhibition @150 μmol/kg: 13.3%

## CCCN1CCC(N(Cc2ccccc2O)c2ccc(C(=O)N(CC)CC)cc2)CC1 [Compound 5, N,N-Diethyl-4-[2-hydroxybenzyl(1-propylpiperidin-4-yl)amino]benzamide]
[1]
  Ki: ≥ 10 µM
[2]
  Ki: 3.47 µM

## CCCN1CCC(N(Cc2ccccc2)c2ccc(C(=O)N(CC)CC)cc2)CC1 [Compound 7, N,N-Diethyl-4-[benzyl(1-propylpiperidin-4-yl)amino]benzamide]
[3]
  MAIT % Inhibition @150 μmol/kg: 100%

## CCN(CC)C(=O)c1ccc(N(Cc2ccccc2)C2CCNCC2)cc1 [Compound 8, N,N-Diethyl-4-[benzyl(piperidin-4-yl)amino]benzamide]
[3]
  MAIT % Inhibition @150 μmol/kg: 33.3%

## C=CCN1CCC(N(Cc2ccccc2)c2ccc(C(=O)N(CC)CC)cc2)CC1 [Compound 9, N,N-Diethyl-4-[benzyl(1-allylpiperidin-4-yl)amino]benzamide]
[3]
  MAIT % Inhibition @150 μmol/kg: 84.6%

## CCN(CC)C(=O)c1ccc(N(Cc2ccccc2)C2CCN(C(C)C)CC2)cc1 [Compound 10, N,N-Diethyl-4-[benzyl(1-isopropylpiperidin-4-yl)amino]benzamide]
[1]
  Ki: 3.79 µM
[2]
  Ki: 0.585 µM

## CCN(CC)C(=O)c1ccc(N(Cc2ccccc2)C2CCN(CCCN(C)C)CC2)cc1 [Compound 11, N,N-Diethyl-4-[benzyl(1-[3-dimethylaminopropyl]piperidin-4-yl)amino]benzamide]
[1]
  Ki: ≥ 10 µM
[2]
  Ki: 1.77 µM
